Results reported in patent publication US7794991B2, “Stemphones and production thereof” (The Kitasato Institute, priority 2005, dated 2010).
Where two headings read alike, the source gives them in different places.

Key:
[1] = tested on: Bacillus subtilis KB211 (PCI 219); assay: Antimicrobial action, paper disc method; type: cell-based; conditions: 5 μg/disc, disc diameter 6 mm, 37° C., 24 hours
[2] = tested on: Stapylococcus aureus KB210 (ATCC6538p); assay: Antimicrobial action, paper disc method; type: cell-based; conditions: 5 μg/disc, disc diameter 6 mm, 37° C., 24 hours
[3] = tested on: Micrococcus luteus KB212 (ATCC9341); assay: Antimicrobial action, paper disc method; type: cell-based; conditions: 5 μg/disc, disc diameter 6 mm, 37° C., 24 hours
[4] = tested on: Acholeplasma laidlawii KB174; assay: Antimicrobial action, paper disc method; type: cell-based; conditions: 5 μg/disc, disc diameter 6 mm, 37° C., 24 hours
[5] = tested on: methicillin resistant Staphylococcus aureus K24; assay: Enhancing effect for activity of imipenem by paper disk method; conditions: for diameter of inhibition zone in the presence of imipenem / diameter of inhibition zone, stemphone alone: 5 μg disc, 37° C., 20 hours; for diameter of inhibition zone in the presence of imipenem: MHA medium with imipenem 10 μg/ml; for diameter of inhibition zone, stemphone alone: MHA medium without imipenem
MRSA = assay: Enhancing activity against various antimicrobial agents by broth microdilution method (MIC); type: cell-based, Staphylococcus aureus; conditions: for Ratio (−/+stemphone C) of MIC: MIC alone / MIC with stemphone C 16 μg/ml, fold enhancement; for MIC: Staphylococcus aureus, MRSA, read-out: MIC, antibacterial agent alone (−); for MIC, +stemphone C: in combination with stemphone C 16 μg/ml
[6] = without stemphone C, 37° C., 20 hours

| Structure (SMILES) | Ratio (−/+stemphone C) of MIC (MRSA) | MIC (MRSA; [6]) | MIC, +stemphone C (MRSA; 37° C., 20 hours) | further results |
| --- | --- | --- | --- | --- |
| C/C=C(\C)C(OC(C)=O)C(C)C1=CC(=O)C2=C(OC3(C)CCC4OC(C(C)(C)O)CC(O)C4(C)C3C2O)C1=O (centres unmarked) [Stemphone B] | – | – | – | zone of inhibition at 5 µg/disc [1]: 10 mm; zone of inhibition at 5 µg/disc [2]: 8 mm; zone of inhibition at 5 µg/disc [3]: 14 mm; zone of inhibition at 5 µg/disc [4]: 10 mm; diameter of inhibition zone in the presence of imipenem [5]: 15 mm; diameter of inhibition zone, stemphone alone [5]: not observed |
| C/C=C(\C)C(OC(C)=O)C(C)C1=CC(=O)C2=C(OC3(C)CCC4OC(C(C)(C)O)CCC4(C)C3C2)C1=O (centres unmarked) [Stemphone C] | – | – | – | effect of stemphone C itself on growth of test organism (MRSA; final concentration 16 μg/ml): did not affect growth; zone of inhibition at 5 µg/disc [1]: 9 mm; zone of inhibition at 5 µg/disc [2]: 8 mm; zone of inhibition at 5 µg/disc [3]: 14 mm; zone of inhibition at 5 µg/disc [4]: 9 mm; diameter of inhibition zone in the presence of imipenem [5]: 20 mm; diameter of inhibition zone, stemphone alone [5]: not observed; enhancing activity for imipenem ([5]; paper disk method, in words): strong enhancing activity |
| Cc1nnc(SCC2=C(C(=O)O)N3C(=O)[C@@H](NC(=O)Cn4cnnn4)[C@H]3SC2)s1 [cefazolin] | 16 | 64 µg/mL | 4 µg/mL | – |
| Cc1onc(-c2ccccc2Cl)c1C(=O)N[C@@H]1C(=O)N2[C@@H]1SC(C)(C)[C@@H]2C(=O)O [cloxacillin] | 512 | 512 µg/mL | 1 µg/mL | – |
| C[C@@H](O)[C@H]1C(=O)N2C(C(=O)O)=C(SCCN=CN)C[C@H]12 [imipenem] | 512 | 16 µg/mL | 0.03 µg/mL | – |
| [H]/N=C(/N)N[C@H]1[C@H](O)[C@@H](O)[C@H](O[C@@H]2O[C@@H](C)[C@](O)(C=O)[C@H]2O[C@@H]2O[C@@H](CO)[C@H](O)[C@@H](O)[C@@H]2NC)[C@@H](N/C(N)=N\[H])[C@@H]1O [streptomycin] | 4 | 2 µg/mL | 0.5 µg/mL | – |
| CN(C)[C@@H]1C(O)=C(C(N)=O)C(=O)[C@@]2(O)C(O)=C3C(=O)c4c(O)cccc4[C@@](C)(O)[C@H]3C[C@@H]12 [tetracycline] | 1 | 32 µg/mL | 32 µg/mL | – |
| CN[C@H](CC(C)C)C(=O)N[C@H]1C(=O)N[C@@H](CC(N)=O)C(=O)N[C@H]2C(=O)N[C@H]3C(=O)N[C@H](C(=O)N[C@H](C(=O)O)c4cc(O)cc(O)c4-c4cc3ccc4O)[C@H](O)c3ccc(c(Cl)c3)Oc3cc2cc(c3O[C@@H]2O[C@H](CO)[C@@H](O)[C@H](O)[C@H]2O[C@H]2C[C@](C)(N)[C@H](O)[C@H](C)O2)Oc2ccc(cc2Cl)[C@H]1O [vancomycin] | 1 | – | 0.5 µg/mL | MIC (MRSA; 20 h): 0.5 µg/mL |
